Experimental findings from patent US20260201008A1, “SECRETIN-DERIVED GLP1R SELECTIVE AGONISTS” (GUBRA A/S, priority 2023, published 2026) are described below.

SMILES strings stand for the structures. Where two headings read alike, the source gives them in different places. Numbered stars: 1 amine (or outer) side, 2 acyl side, 3 side chain; on linkers, the order of the positions; unused ones are H or OH. Square brackets hold non-standard residues; d marks the D form. Side chains are listed from the residue outwards. Peptide text beside a SMILES is read from it. * marks the point of attachment. C18 diacid = O=C(O)CCCCCCCCCCCCCCCCC(=O)*; γGlu = O=C(O)[C@H](CCC(=O)[*:2])N[*:1]; AEEA = NCCOCCOCC(=O)O; Aib = CC(C)(N)C(=O)O

The target of one assay is SCTR (Homo sapiens, UniProt P47872). Nature of the assay: hSCTR potency, cAMP accumulation in CHO-K1 cells stably overexpressing hSCTR. It counts as cell-based. Details: alternatively Euroscreen ES-712-AF; FAST-0161L; host or cells: CHO-K1. As to conditions: read-out: pEC50 hSCTR (converted). The source says: (§1) Crude library peptides are screened in 10-fold serial dilutions of 5 concentrations, n=1 time. Tip change is done for the first two serial dilutions. Compound starting concentration (top) will be adjusted throughout the study if needed.
(§2) Purified peptides are screened in 3-fold serial dilutions of 11 concentrations, n=2 times. Tip change is done for all serial dilutions. Compound starting concentration (top) will be adjusted throughout the study. If the top concentration is adjusted or a 5-fold difference in calculated EC50 values is observed, n is increased by 1. EC50 values were calculated by nonlinear regression using sigmoid concentration-response with variable slope.
(§3) Frozen division arrested CHO-K1 cells stably overexpressing the hSCTR were obtained from PerkinElmer (ES-712-AF). Alternatively, a CHO-K1 cell line stably overexpressing the hSCTR was obtained from Euroscreen (FAST-0161L), expanded, aliquoted and frozen. An aliquot was thawed and plated in DPBS with 0.05% casein and 0.5 mM IBMX as 2000 cells/well in a 384-well format. The cells were then immediately stimulated for 30 min at room temperature with graded doses of test compound using human secretin (synthesized at Gubra) as a positive control. cAMP accumulation was measured using a Cisbio assay for Gs coupled receptors (cat. no. 62AM4PEC), where the assay reagents were added as per the manufacturer's instructions and time-resolved fluorescence energy transfer recorded after one hour on a CLARIOstar (BMG Labtech) plate reader.

The target of another assay is GLP1R (Homo sapiens, UniProt P43220). Nature of the assay: hGLP1R potency, cAMP accumulation in CHO-K1 cells stably overexpressing hGLP1R. Format: cell-based. Details: host or cells: CHO-K1. As to conditions: for Selectivity: SCTR EC50/GLP1R EC50 ratio.
Excerpt: as §1, §2
as §3, with “A” for “Frozen division arrested CHO-K1 cells stably overexpressing the hSCTR were obtained from PerkinElmer (ES-712-AF). Alternatively, a”, “hGLP1R” for “hSCTR”, “(FAST-0145L),” for “(FAST-0161L),”, “GLP-1(7-36)” for “secretin”

Where [1] appears, read: Table 2, extended 30 amino acid peptides.
The mark [2] stands for this setting: Table 2, extended 30 amino acid peptides, read-out: PEC50 hGLPR1 (converted).
The mark [3] stands for this setting: Table 4, position X12 variants of GUB06-046.
[4] abbreviates: Table 4, position X12 variants of GUB06-046, read-out: pEC50 hGLPR1 (converted).
[5] abbreviates: Table 3, position X^10 variants of GUB06-046.

Chain of GLP1R (P43220 24-463): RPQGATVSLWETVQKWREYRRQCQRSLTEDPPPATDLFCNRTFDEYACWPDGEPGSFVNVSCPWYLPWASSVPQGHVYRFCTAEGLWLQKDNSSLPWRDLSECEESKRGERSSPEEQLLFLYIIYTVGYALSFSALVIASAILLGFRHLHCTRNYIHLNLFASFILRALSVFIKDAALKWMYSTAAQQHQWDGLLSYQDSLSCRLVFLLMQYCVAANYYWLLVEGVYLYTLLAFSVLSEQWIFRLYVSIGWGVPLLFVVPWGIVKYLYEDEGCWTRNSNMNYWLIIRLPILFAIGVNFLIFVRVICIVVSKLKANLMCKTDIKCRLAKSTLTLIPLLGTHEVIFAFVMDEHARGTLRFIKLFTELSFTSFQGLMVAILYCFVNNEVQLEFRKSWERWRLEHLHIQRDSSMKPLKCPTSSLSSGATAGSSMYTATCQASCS
Chain of SCTR (P47872 23-440): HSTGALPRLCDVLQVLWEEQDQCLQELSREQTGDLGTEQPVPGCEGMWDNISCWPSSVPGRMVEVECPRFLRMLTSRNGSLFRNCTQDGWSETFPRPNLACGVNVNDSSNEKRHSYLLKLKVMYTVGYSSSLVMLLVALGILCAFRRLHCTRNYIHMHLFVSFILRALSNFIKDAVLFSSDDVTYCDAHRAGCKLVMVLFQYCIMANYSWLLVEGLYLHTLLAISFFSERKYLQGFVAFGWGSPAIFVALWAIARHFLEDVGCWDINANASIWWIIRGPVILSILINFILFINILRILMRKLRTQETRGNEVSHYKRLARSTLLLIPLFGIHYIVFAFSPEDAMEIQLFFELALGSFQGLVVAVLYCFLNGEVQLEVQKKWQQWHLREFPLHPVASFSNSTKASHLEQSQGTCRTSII

`CC(C)C[C@H](NC(=O)[C@H](Cc1ccccc1)NC(=O)[C@H](CCCNC(=N)N)NC(=O)[C@H](CCC(N)=O)NC(=O)[C@H](CCC(=O)O)NC(=O)[C@H](C)NC(=O)[C@H](C)NC(=O)CNC(=O)[C@H](CCC(=O)O)NC(=O)[C@H](CCCCNC(=O)COCCOCCNC(=O)COCCOCCNC(=O)CC[C@H](NC(=O)CCCCCCCCCCCCCCCCC(=O)O)C(=O)O)NC(=O)[C@H](CC(C)C)NC(=O)[C@H](CCCNC(=N)N)NC(=O)[C@H](CO)NC(=O)[C@@H](NC(=O)[C@H](CC(=O)O)NC(=O)[C@H](CO)NC(=O)[C@@H](NC(=O)[C@H](Cc1ccccc1)NC(=O)[C@@H](NC(=O)CNC(=O)[C@H](CCC(=O)O)NC(=O)C(C)(C)NC(=O)[C@@H](N)Cc1c[nH]cn1)[C@@H](C)O)[C@@H](C)O)C(C)C)C(=O)N[C@@H](CCC(N)=O)C(=O)N[C@@H](Cc1c[nH]cn1)C(=O)N[C@@H](CC(C)C)C(=O)N[C@H](C(=O)N[C@@H](CCC(=O)O)C(=O)N[C@@H](C)C(=O)N[C@@H](CCC(=O)O)C(N)=O)C(C)C` [compound 204] (H-H[Aib]EGTFTSDVSRLK([AEEA-AEEA-γGlu-C18 diacid])EGAAEQRFLQHLVEAE-NH2): the EC50 on SCTR (setting [1]) was 2510 nM; on GLP1R (setting [2]), 0.01 nM. The Selectivity on GLP1R (setting [1]) was found to be 285714.
In the case of `CC[C@H](C)[C@H](NC(=O)[C@H](Cc1ccccc1)NC(=O)[C@H](CCCNC(=N)N)NC(=O)[C@H](CCC(N)=O)NC(=O)[C@H](CC(C)C)NC(=O)[C@H](C)NC(=O)[C@H](C)NC(=O)CNC(=O)[C@H](CCC(=O)O)NC(=O)[C@H](CC(C)C)NC(=O)[C@H](CC(C)C)NC(=O)[C@H](Cc1c[nH]c2ccccc12)NC(=O)[C@H](CO)NC(=O)[C@H](CC(C)C)NC(=O)[C@H](CC(=O)O)NC(=O)[C@H](CO)NC(=O)[C@@H](NC(=O)[C@H](Cc1ccccc1)NC(=O)[C@@H](NC(=O)CNC(=O)[C@H](CCC(=O)O)NC(=O)C(C)(C)NC(=O)[C@@H](N)Cc1c[nH]cn1)[C@@H](C)O)[C@@H](C)O)C(=O)N[C@@H](CCC(N)=O)C(=O)N[C@@H](Cc1c[nH]c2ccccc12)C(=O)N[C@@H](CC(C)C)C(=O)N[C@H](C(N)=O)C(C)C` [compound 228] (H-H[Aib]EGTFTSDLSWLLEGAALQRFIQWLV-NH2), the results for the EC50 at SCTR (setting [3]) and at GLP1R (setting [4]) were 0.794 nM and 0.0158 nM, respectively. Besides, on GLP1R (setting [3]), the Selectivity is listed as 53.
For `CC[C@H](C)[C@H](NC(=O)[C@H](Cc1ccccc1)NC(=O)[C@H](CCCNC(=N)N)NC(=O)[C@H](CCC(N)=O)NC(=O)[C@H](CC(C)C)NC(=O)[C@H](C)NC(=O)[C@H](C)NC(=O)CNC(=O)[C@H](CCC(=O)O)NC(=O)[C@H](CC(C)C)NC(=O)[C@H](CC(C)C)NC(=O)CNC(=O)[C@H](CO)NC(=O)[C@H](CC(C)C)NC(=O)[C@H](CC(=O)O)NC(=O)[C@H](CO)NC(=O)[C@@H](NC(=O)[C@H](Cc1ccccc1)NC(=O)[C@@H](NC(=O)CNC(=O)[C@H](CCC(=O)O)NC(=O)C(C)(C)NC(=O)[C@@H](N)Cc1c[nH]cn1)[C@@H](C)O)[C@@H](C)O)C(=O)N[C@@H](CCC(N)=O)C(=O)N[C@@H](Cc1c[nH]c2ccccc12)C(=O)N[C@@H](CC(C)C)C(=O)N[C@H](C(N)=O)C(C)C` [compound 226] (H-H[Aib]EGTFTSDLSGLLEGAALQRFIQWLV-NH2) the same measures were 5.01 nM, 0.0316 nM and 145.
For `CC[C@H](C)[C@H](NC(=O)[C@H](Cc1ccccc1)NC(=O)[C@H](CCCNC(=N)N)NC(=O)[C@H](CCC(N)=O)NC(=O)[C@H](CC(C)C)NC(=O)[C@H](C)NC(=O)[C@H](C)NC(=O)CNC(=O)[C@H](CCC(=O)O)NC(=O)[C@H](CC(C)C)NC(=O)[C@H](CC(C)C)NC(=O)[C@H](CCC(=O)O)NC(=O)[C@H](CO)NC(=O)[C@H](CC(C)C)NC(=O)[C@H](CC(=O)O)NC(=O)[C@H](CO)NC(=O)[C@@H](NC(=O)[C@H](Cc1ccccc1)NC(=O)[C@@H](NC(=O)CNC(=O)[C@H](CCC(=O)O)NC(=O)C(C)(C)NC(=O)[C@@H](N)Cc1c[nH]cn1)[C@@H](C)O)[C@@H](C)O)C(=O)N[C@@H](CCC(N)=O)C(=O)N[C@@H](Cc1c[nH]c2ccccc12)C(=O)N[C@@H](CC(C)C)C(=O)N[C@H](C(N)=O)C(C)C` [compound 224] (H-H[Aib]EGTFTSDLSELLEGAALQRFIQWLV-NH2) the same measures were 1.58 nM, 0.0126 nM and 120.
In the case of `CC[C@H](C)[C@H](NC(=O)[C@H](Cc1ccccc1)NC(=O)[C@H](CCCNC(=N)N)NC(=O)[C@H](CCC(N)=O)NC(=O)[C@H](CC(C)C)NC(=O)[C@H](C)NC(=O)[C@H](C)NC(=O)CNC(=O)[C@H](CCC(=O)O)NC(=O)[C@H](CC(C)C)NC(=O)[C@H](CC(C)C)NC(=O)[C@H](CCCNC(=N)N)NC(=O)[C@H](CO)NC(=O)[C@H](CC(C)C)NC(=O)[C@H](CC(=O)O)NC(=O)[C@H](CO)NC(=O)[C@@H](NC(=O)[C@H](Cc1ccccc1)NC(=O)[C@@H](NC(=O)CNC(=O)[C@H](CCC(=O)O)NC(=O)C(C)(C)NC(=O)[C@@H](N)Cc1c[nH]cn1)[C@@H](C)O)[C@@H](C)O)C(=O)N[C@@H](CCC(N)=O)C(=O)N[C@@H](Cc1c[nH]c2ccccc12)C(=O)N[C@@H](CC(C)C)C(=O)N[C@H](C(N)=O)C(C)C` [compound 216] (H-H[Aib]EGTFTSDLSRLLEGAALQRFIQWLV-NH2), the EC50 on SCTR (setting [5]) is 0.501 nM; on SCTR (setting [3]), 0.501 nM; on GLP1R (Table 3, position X^10 variants of GUB06-046, read-out: pEC50 hGLPR1 (converted)), 0.0398 nM; at GLP1R (setting [4]) it was 0.0398 nM. Moreover, the Selectivity on GLP1R (setting [5]) and at GLP1R (setting [3]) was 13 throughout.
For `CC[C@H](C)[C@H](NC(=O)[C@H](Cc1ccccc1)NC(=O)[C@H](CCCNC(=N)N)NC(=O)[C@H](CCC(N)=O)NC(=O)[C@H](CC(C)C)NC(=O)[C@H](C)NC(=O)[C@H](C)NC(=O)CNC(=O)[C@H](CCC(=O)O)NC(=O)[C@H](CC(C)C)NC(=O)[C@H](CC(C)C)NC(=O)C(C)(C)NC(=O)[C@H](CO)NC(=O)[C@H](CC(C)C)NC(=O)[C@H](CC(=O)O)NC(=O)[C@H](CO)NC(=O)[C@@H](NC(=O)[C@H](Cc1ccccc1)NC(=O)[C@@H](NC(=O)CNC(=O)[C@H](CCC(=O)O)NC(=O)C(C)(C)NC(=O)[C@@H](N)Cc1c[nH]cn1)[C@@H](C)O)[C@@H](C)O)C(=O)N[C@@H](CCC(N)=O)C(=O)N[C@@H](Cc1c[nH]c2ccccc12)C(=O)N[C@@H](CC(C)C)C(=O)N[C@H](C(N)=O)C(C)C` [compound 223] (H-H[Aib]EGTFTSDLS[Aib]LLEGAALQRFIQWLV-NH2), the EC50 on SCTR (setting [3]) is 5.01 nM; at GLP1R (setting [4]) it was 0.0631 nM. Further, the Selectivity at GLP1R (setting [3]) was 78.
Regarding `CC(C)C[C@H](NC(=O)[C@H](Cc1ccccc1)NC(=O)[C@H](CCCNC(=N)N)NC(=O)[C@H](CCC(N)=O)NC(=O)[C@H](CCC(=O)O)NC(=O)[C@H](C)NC(=O)[C@H](C)NC(=O)CNC(=O)[C@H](CCC(=O)O)NC(=O)[C@H](CCCCNC(=O)COCCOCCNC(=O)COCCOCCNC(=O)CC[C@H](NC(=O)CCCCCCCCCCCCCCCCC(=O)O)C(=O)O)NC(=O)[C@H](CC(C)C)NC(=O)[C@H](CCCNC(=N)N)NC(=O)[C@H](CO)NC(=O)[C@@H](NC(=O)[C@H](CC(=O)O)NC(=O)[C@H](CO)NC(=O)[C@@H](NC(=O)[C@H](Cc1ccccc1)NC(=O)[C@@H](NC(=O)CNC(=O)[C@H](CCC(=O)O)NC(=O)C(C)(C)NC(=O)[C@@H](N)Cc1c[nH]cn1)[C@@H](C)O)[C@@H](C)O)C(C)C)C(=O)N[C@@H](CCC(N)=O)C(=O)N[C@@H](Cc1c[nH]cn1)C(=O)N[C@@H](CC(C)C)C(=O)N[C@H](C(=O)N[C@@H](C)C(=O)N[C@@H](C)C(=O)N[C@@H](CCC(=O)O)C(N)=O)C(C)C` [compound 206] (H-H[Aib]EGTFTSDVSRLK([AEEA-AEEA-γGlu-C18 diacid])EGAAEQRFLQHLVAAE-NH2), the EC50 on SCTR (setting [1]) was 5010 nM; at GLP1R (setting [2]), 0.0158 nM. Moreover, the Selectivity at GLP1R (setting [1]) was 312500.
